# Assay results taken from US10583102B2, “Targeting liver nuclear receptors as a treatment for wilson disease” (THE JOHNS HOPKINS UNIVERSITY, priority 2014, dated 2020).
# Entries after “also recorded” stand apart in the source; their conditions may differ.
# Key:
# [1] = test system: Atp7b−/− mice; assay: Liver histology (H&E, inflammation scoring); format: in vivo
# Procedure: ATP7b knockout (ATP7b^−/−) and heterozygote (ATP7b^+/−) mice were generated as previously prescribed (Buiakova et al., 8(9) HUM. MOL. GENETICS 1665-71 (1999). T0901317 (Cayman Chemical, Ann Arbor, Mich.) powder was mixed with Teklad 2018 powdered chow (Harlan, Madison Wis.) and fed to animals aged 6-7 weeks old at a dose of 50 mg/kg/day, thrice weekly. After 8 weeks, animals were sacrificed. The animals were housed at the Johns Hopkins University School of Medicine (JHUSOM) Animal Care Facility and protocols designed according to National Institutes of Health (USA) guidelines. Normal pellet chow was fed to the mice on days they were not receiving the drug. Animals were weighed weekly. At the time of sacrifice, trunk blood and livers were harvested. The Institutional Animal Care and Use Committee (IACUC) of JHUSOM approved the above experimental protocols. Sections of mouse liver were covered in OCT and snap frozen in liquid nitrogen. Sections were then cut and stained with hematoxylin and eosin. De-identified samples were analyzed for the presence of inflammation by an expert in veterinary pathology (D.H.). Inflammation was scored as follows: none, 0; mild, 1; moderate, 2; and severe, 3. Severely inflamed livers had karyomegaly, cytomegaly, binucleate hepatocytes, intranuclear vacuoles, multiple nuclei, and inflammatory cell infiltrates.
# [2] = test system: Atp7b−/− mice; assay: Hepatic triglyceride colorimetric assay; format: in vivo
# Procedure: ATP7b knockout (ATP7b^−/−) and heterozygote (ATP7b^+/−) mice were generated as previously prescribed (Buiakova et al., 8(9) HUM. MOL. GENETICS 1665-71 (1999). T0901317 (Cayman Chemical, Ann Arbor, Mich.) powder was mixed with Teklad 2018 powdered chow (Harlan, Madison Wis.) and fed to animals aged 6-7 weeks old at a dose of 50 mg/kg/day, thrice weekly. After 8 weeks, animals were sacrificed. The animals were housed at the Johns Hopkins University School of Medicine (JHUSOM) Animal Care Facility and protocols designed according to National Institutes of Health (USA) guidelines. Normal pellet chow was fed to the mice on days they were not receiving the drug. Animals were weighed weekly. At the time of sacrifice, trunk blood and livers were harvested. The Institutional Animal Care and Use Committee (IACUC) of JHUSOM approved the above experimental protocols. The triglyceride colorimetric assay kit (Cayman Chemical, Ann Arbor, Mich.) was used for measuring hepatic triglyceride content using the provided protocol. 120-160 mg of liver tissue was homogenized and samples were assayed in triplicate. Absorbance at 540 nm was detected on an Envision plate reader (Perkin-Elmer). Triglyceride concentrations were calculated using a standard curve, then normalized to the volume of homogenate and the mass of the liver tissue.
# [3] = test system: Atp7b−/− mice; assay: Serum liver biochemistries (AST, ALT, bilirubin, albumin); format: in vivo; conditions: treated Atp7b−/− mice; p<0.05 vs untreated
# Procedure: (§1) ATP7b knockout (ATP7b^−/−) and heterozygote (ATP7b^+/−) mice were generated as previously prescribed (Buiakova et al., 8(9) HUM. MOL. GENETICS 1665-71 (1999). T0901317 (Cayman Chemical, Ann Arbor, Mich.) powder was mixed with Teklad 2018 powdered chow (Harlan, Madison Wis.) and fed to animals aged 6-7 weeks old at a dose of 50 mg/kg/day, thrice weekly. After 8 weeks, animals were sacrificed. The animals were housed at the Johns Hopkins University School of Medicine (JHUSOM) Animal Care Facility and protocols designed according to National Institutes of Health (USA) guidelines. Normal pellet chow was fed to the mice on days they were not receiving the drug. Animals were weighed weekly. At the time of sacrifice, trunk blood and livers were harvested. The Institutional Animal Care and Use Committee (IACUC) of JHUSOM approved the above experimental protocols. Animals were fasted overnight before sacrifice. Whole blood was collected from the aorta and vena cava in amber Microtainer tubes (Becton Dickinson, Franklin Lakes, N.J.), and serum was separated after centrifugation at 5000 rpm for 10 minutes. Liver biochemistries and lipid panels were performed in the Molecular and Comparative Pathobiology Core Laboratory of JHUSOM.
# [4] = Animal and liver weights during/after T0901317 treatment in chow; format: in vivo, mice; conditions: for body weight: 50 mg/kg/day thrice weekly in chow, 8 weeks
# Procedure: as §1, with “protocols.” for “protocols. Animals were fasted overnight before sacrifice. Whole blood was collected from the aorta and vena cava in amber Microtainer tubes (Becton Dickinson, Franklin Lakes, N.J.), and serum was separated after centrifugation at 5000 rpm for 10 minutes. Liver biochemistries and lipid panels were performed in the Molecular and Comparative Pathobiology Core Laboratory of JHUSOM.”
# [5] = test system: Atp7b−/− mice; assay: Serum lipid panel; format: in vivo; conditions: drug treated Atp7b−/− mice vs untreated Atp7b−/−
# Procedure: as §1
# [6] = test system: LXR/RXR signaling pathway; assay: Quantitative RT-PCR of liver mRNA, genes under control of LXR/RXR signaling pathway; format: in vivo, mice; conditions: for SREBP1 mRNA / FASN mRNA expression: treated vs untreated
# Procedure: as §1, with “protocols.” for “protocols. Animals were fasted overnight before sacrifice. Whole blood was collected from the aorta and vena cava in amber Microtainer tubes (Becton Dickinson, Franklin Lakes, N.J.), and serum was separated after centrifugation at 5000 rpm for 10 minutes. Liver biochemistries and lipid panels were performed in the Molecular and Comparative Pathobiology Core Laboratory of JHUSOM.”
# (§2) Sections of mouse liver were immersed in RNAlater, homogenized, and frozen at −80° C. RNA was isolated with TRIzol via the manufacturer's instructions, then transcribed into cDNA using the SuperScript III first strand synthesis system (Invitrogen). RNA quantity was determined by an ND-1000 spectrophotometer (NanoDrop, Wilmington, Del.). Samples were run in triplicate and performed on a 7900 HT machine (Applied Biosystems) and analyzed with the SDS 2.4.1 software. GAPDH served as the control to which gene of interest expression was normalized.
# (§3) Quantitative RT-PCR for ABC1, HmGCoA1, CYP71a, FASN, LXRα (NR1H3), LXRβ (NR1H2), RXRα (NR2B2), SREBP1, FXR, TIMP1, COL1a, and GAPDHwas performed with sequence-specific primers and probes using TaqMan gene expression assays (Applied Biosystems, Foster City, Calif.).
# [7] = test system: Atp7b−/− mice; assay: Quantitative RT-PCR of liver mRNA, inflammatory and fibrosis genes; format: in vivo
# Procedure: as §1, with “protocols.” for “protocols. Animals were fasted overnight before sacrifice. Whole blood was collected from the aorta and vena cava in amber Microtainer tubes (Becton Dickinson, Franklin Lakes, N.J.), and serum was separated after centrifugation at 5000 rpm for 10 minutes. Liver biochemistries and lipid panels were performed in the Molecular and Comparative Pathobiology Core Laboratory of JHUSOM.”
# as §2, §3
# [8] = test system: Atp7b−/− mice; assay: Hepatic oxysterol measurement by LC/MS; format: in vivo; conditions: Atp7b knockout mice, data not shown
# Procedure: ATP7b knockout (ATP7b^−/−) and heterozygote (ATP7b^+/−) mice were generated as previously prescribed (Buiakova et al., 8(9) HUM. MOL. GENETICS 1665-71 (1999). T0901317 (Cayman Chemical, Ann Arbor, Mich.) powder was mixed with Teklad 2018 powdered chow (Harlan, Madison Wis.) and fed to animals aged 6-7 weeks old at a dose of 50 mg/kg/day, thrice weekly. After 8 weeks, animals were sacrificed. The animals were housed at the Johns Hopkins University School of Medicine (JHUSOM) Animal Care Facility and protocols designed according to National Institutes of Health (USA) guidelines. Normal pellet chow was fed to the mice on days they were not receiving the drug. Animals were weighed weekly. At the time of sacrifice, trunk blood and livers were harvested. The Institutional Animal Care and Use Committee (IACUC) of JHUSOM approved the above experimental protocols. Oxysterols were extracted and measured using the protocol described by McDonald et al. (53(7) J. LIPID RES. 1399-1409 (2012)). […] Quantitation was performed by establishing a linear relationship between measured amounts of the analytical standards combined with the internal standard cocktail. This regression line was applied to the measured peak areas for analytes in the extracted samples to determine measured quantities present in each sample. […]
# [9] = test system: Atp7b−/− mice; assay: Hepatic copper measurement by atomic absorption spectroscopy; format: in vivo; conditions: drug-treated Atp7b−/− mice, end of experiment
# Procedure: ATP7b knockout (ATP7b^−/−) and heterozygote (ATP7b^+/−) mice were generated as previously prescribed (Buiakova et al., 8(9) HUM. MOL. GENETICS 1665-71 (1999). T0901317 (Cayman Chemical, Ann Arbor, Mich.) powder was mixed with Teklad 2018 powdered chow (Harlan, Madison Wis.) and fed to animals aged 6-7 weeks old at a dose of 50 mg/kg/day, thrice weekly. After 8 weeks, animals were sacrificed. The animals were housed at the Johns Hopkins University School of Medicine (JHUSOM) Animal Care Facility and protocols designed according to National Institutes of Health (USA) guidelines. Normal pellet chow was fed to the mice on days they were not receiving the drug. Animals were weighed weekly. At the time of sacrifice, trunk blood and livers were harvested. The Institutional Animal Care and Use Committee (IACUC) of JHUSOM approved the above experimental protocols. Hepatic copper levels were measured by polarized atomic absorption spectroscopy as previously described. Briefly, 50-100 mg of liver was dissolved in 2 ml of HNO3 at 90° C. Copper levels were determined using a Hitachi Z-8279 spectrophotometer. Samples were compared to freshly prepared standards.
# [10] = Atp7b−/− mice, treated vs untreated
compound,measurement,setting,value
"O=S(=O)(c1ccccc1)N(CC(F)(F)F)c1ccc(C(O)(C(F)(F)F)C(F)(F)F)cc1 [T0901317, N-(2,2,2-trifluoroethyl)-N-{4-[2,2,2-trifluoro-1-hydroxy-1-(trifluorometh-yl)ethyl]phenyl}benzene sulfonamide]",effect on liver histology,[1]; heterozygote mice,no effect
same,treated mice in which pathologic liver histology features disappeared,"[1]; treated KO mice, light microscopy",5/7
same,hepatic triglycerides,[2]; drug treated HET mice vs untreated HET,statistically significant increase
same,hepatic triglycerides,[2]; drug treated KO mice vs untreated KO,statistically significant increase
same,serum ALT (mean),[3],285±115 U/L
same,serum AST (mean),[3],222±64 U/L
same,serum albumin,[3],2.93 ± 0.19 g/dL
same,serum total bilirubin,[3],0.85 ± 0.22 mg/dL
same,"liver weight, treated vs untreated","[4]; KO (Atp7b−/−) mice, end of treatment",neither a difference
same,body weight,"[4]; drug-treated HET (Atp7b+/−) mice, p<0.05 vs untreated",26.43 ± 1.35 g
same,body weight,[4]; drug-treated KO (Atp7b−/−) mice,24.03 ± 0.91 g
same,serum low density lipoprotein (LDL),[5]; p<0.001,significantly increased; also recorded: more than doubled
same,serum total cholesterol,[5]; p<0.001,significantly increased; also recorded: more than doubled
same,serum high density lipoprotein (HDL),[5]; p<0.005,significantly increased; also recorded: more than doubled
same,SREBP1 mRNA,[6]; ATP7b+/− mice,increased
same,SREBP1 mRNA,[6]; ATP7b−/− mice,no change
same,FASN mRNA expression,[6]; Atp7b+/− mice,significantly increased
same,FASN mRNA expression,[6]; Atp7b−/− mice,significantly increased
same,ABC1 mRNA levels,[6]; both KO and HET mice,did not change
same,CYP7A1 mRNA levels,[6]; both KO and HET mice,did not change
same,HMGCS1 mRNA levels,[6]; both KO and HET mice,did not change
same,NR1H2 mRNA levels,[6]; both KO and HET mice,did not change
same,NR1H3 mRNA levels,[6]; both KO and HET mice,did not change
same,NR1H4 mRNA levels,[6]; both KO and HET mice,did not change
same,increase in expression of collagen (Col1a mRNA),[7]; Atp7b−/− mice,completely abolished
same,IL-1β expression,[7]; [10],significantly reduced
same,TNFα expression,[7]; [10],significantly reduced
same,iNOs expression,[7]; [10],significantly reduced
same,"expression of inflammatory genes (TNFα, IL-1β, iNOs)",[7]; heterozygote animals,no effect
same,changes in hepatic oxysterol levels,[8],did not reverse
same,hepatic copper levels,[9],did not prevent copper accumulation
